Literature values, collected in patent publication US8821944B1, “Polymorph compositions, methods of making, and uses thereof” (Edge Therapeutics, Inc., priority 2013, dated 2014).

Assays:
[1] = at +25° C. and +37° C.
[2] = at +25° C. and +37° C.; remark: listed apart in the source

In the case of `COCCOC(=O)C1=C(C)NC(C)=C(C(=O)OC(C)C)C1c1cccc([N+](=O)[O-])c1` (centres unmarked) [Form II], the “stability compared to Form I” value [1] is given as “higher stability” and the “solubility compared to Form I” value [2] is given as “lower solubility”.
